Converted amounts (≈) assume the structure as drawn.
Legend:
Serratia marcescens = test: Minimum inhibitory concentration, Serratia marcescens; format: cell-based; conditions: 0.5% peptone agar, 37° C., 17 hours
Protocol: (§1) *Minimum inhibitory concentrations were determined on a 0.5% peptone agar
(§2) by incubation at 37° C. for 17 hours.

[1] = test system: Staphylococcus aureus FDA209P; test: Minimum inhibitory concentration, Staphylococcus aureus FDA209P; format: cell-based; conditions: 0.5% peptone agar, 37° C., 17 hours
Protocol: as §1, §2

Proteus vulgaris OX-19 = test: Minimum inhibitory concentration, Proteus vulgaris OX-19; format: cell-based; conditions: OX19, 0.5% peptone agar, 37° C., 17 hours
Protocol: as §1, §2

Escherichia coliK-12 = test: Minimum inhibitory concentration, Escherichia coli K-12; format: cell-based; conditions: 0.5% peptone agar, 37° C., 17 hours
Protocol: as §1, §2

[2] = test system: Klebsiella pneumoniae PCI602; test: Minimum inhibitory concentration, Klebsiella pneumoniae PCI602; format: cell-based; conditions: 0.5% peptone agar, 37° C., 17 hours
Protocol: as §1, §2

[3] = test system: Bacillus subtilis NRRL B-558; test: Minimum inhibitory concentration, Bacillus subtilis NRRL B-558; format: cell-based; conditions: NRRLB558, 0.5% peptone agar, 37° C., 17 hours
Protocol: as §1, §2

[4] = test system: Pseudomonas aeruginosa No. 12; test: Minimum inhibitory concentration, Pseudomonas aeruginosa No. 12; format: cell-based; conditions: 0.5% peptone agar, 37° C., 17 hours
Protocol: as §1, §2

Pseudomonas fluorescens = test: Minimum inhibitory concentration, Pseudomonas fluorescens; format: cell-based; conditions: 0.5% peptone agar, 37° C., 17 hours
Protocol: as §1, §2

Salmonella typhi T-63 = test: Minimum inhibitory concentration, Salmonella typhi T-63; format: cell-based; conditions: Salmonella enterica, 17 h, read-out: Minimum Inhibitory Concentration
Protocol: as §1, §2

[5] = Stability in aqueous or 0.02N HCl aqueous solution; format: physicochemical; conditions: in words
[6] = test system: Staphylococcus aureus Smith; test: Minimum inhibitory concentration, Staphylococcus aureus Smith; format: cell-based; conditions: 0.5% peptone agar, 37° C., 17 hours
Protocol: as §1, §2

Proteus rettgeri GN311 = test: Minimum inhibitory concentration, Proteus rettgeri GN311; format: cell-based; conditions: Providencia rettgeri, 0.5% peptone agar, 37° C., 17 hours
Protocol: as §1, §2

[7] = test system: Pseudomonas aeruginosa A3; test: Minimum inhibitory concentration, Pseudomonas aeruginosa A3; format: cell-based; conditions: 0.5% peptone agar, 37° C., 17 hours
Protocol: as §1, §2

Escherichia coli NIHJ = test: Minimum inhibitory concentration, Escherichia coli NIHJ; format: cell-based; conditions: 0.5% peptone agar, 37° C., 17 hours
Protocol: as §1, §2

Sarcina lutea PCI1001 = test: Minimum inhibitory concentration, Sarcina lutea PCI1001; format: cell-based; conditions: Micrococcus luteus, 0.5% peptone agar, 37° C., 17 hours
Protocol: as §1, §2

[8] = test system: Gram-positive and Gram-negative bacteria; test: Antibacterial activity against Gram-positive and Gram-negative bacteria; format: cell-based; conditions: in words
Protocol: as §1, §2

Micrococcus flavus FDA16 = test: Minimum inhibitory concentration, Micrococcus flavus FDA16; format: cell-based; conditions: 0.5% peptone agar, 37° C., 17 hours
Protocol: as §1, §2

[9] = test system: Mycobacterium smegmatis ATC607; test: Minimum inhibitory concentration, Mycobacterium smegmatis ATC607; format: cell-based; conditions: Mycolicibacterium smegmatis, 0.5% peptone agar, 37° C., 17 hours
Protocol: as §1, §2

[10] = test system: Escherichia coli K-12 ML1629; test: Minimum inhibitory concentration, Escherichia coli K-12 ML1629; format: cell-based; conditions: K12ML1629, 0.5% peptone agar, 37° C., 17 hours
Protocol: as §1, §2

Proteus rettgeri GN466 = test: Minimum inhibitory concentration, Proteus rettgeri GN466; format: cell-based; conditions: Providencia rettgeri, 0.5% peptone agar, 37° C., 17 hours
Protocol: as §1, §2

Compound: CN(CC(=O)O)NC(=O)C[C@H](N)CCCN [Deoxynegamycin]
- MIC (Serratia marcescens): 25 µg/mL (≈ 108 µM)
- MIC [1]: 25 µg/mL (≈ 108 µM)
- MIC (Proteus vulgaris OX-19): 3.13 µg/mL (≈ 13.5 µM)
- MIC (Escherichia coliK-12): 3.13 µg/mL (≈ 13.5 µM)
- MIC [2]: 6.25 µg/mL (≈ 26.9 µM)
- MIC [3]: 100 µg/mL (≈ 431 µM)
- MIC [4]: 50 µg/mL (≈ 215 µM)
- MIC (Pseudomonas fluorescens): 3.13 µg/mL (≈ 13.5 µM)
- MIC (Salmonella typhi T-63): 0.78 µg/mL (≈ 3.36 µM)
- stability in aqueous solution (general statement) [5]: quite stable in aqueous solution
- MIC [6]: 6.25 µg/mL (≈ 26.9 µM)
- MIC (Proteus rettgeri GN311): 6.25 µg/mL (≈ 26.9 µM)
- MIC [7]: 25 µg/mL (≈ 108 µM)
- MIC (Escherichia coli NIHJ): 6.25 µg/mL (≈ 26.9 µM)
- MIC (Sarcina lutea PCI1001): > 100 µg/mL
- inhibition of growth of Gram-positive and Gram-negative bacteria [8]: active against Gram-positive and Gram-negative bacteria
- MIC (Micrococcus flavus FDA16): 50 µg/mL (≈ 215 µM)
- MIC [9]: 50 µg/mL (≈ 215 µM)
- MIC [10]: 3.13 µg/mL (≈ 13.5 µM)
- MIC (Proteus rettgeri GN466): 3.13 µg/mL (≈ 13.5 µM)

Compound: CO[C@@H](CN)C[C@@H](N)CC(=O)NN(C)CC(=O)O [O-Methylnegamycin]
- MIC (Serratia marcescens): 25 µg/mL (≈ 95.3 µM)
- MIC [1]: 12.5 µg/mL (≈ 47.7 µM)
- MIC (Proteus vulgaris OX-19): 1.56 µg/mL (≈ 5.95 µM)
- MIC (Escherichia coliK-12): 3.13 µg/mL (≈ 11.9 µM)
- MIC [2]: 6.25 µg/mL (≈ 23.8 µM)
- MIC [3]: 50 µg/mL (≈ 191 µM)
- MIC [4]: 25 µg/mL (≈ 95.3 µM)
- MIC (Pseudomonas fluorescens): 1.56 µg/mL (≈ 5.95 µM)
- MIC (Salmonella typhi T-63): 1.56 µg/mL (≈ 5.95 µM)
- stability in aqueous solution (general statement) [5]: quite stable in aqueous solution
- MIC [6]: 6.25 µg/mL (≈ 23.8 µM)
- MIC (Proteus rettgeri GN311): 6.25 µg/mL (≈ 23.8 µM)
- MIC [7]: 12.5 µg/mL (≈ 47.7 µM)
- MIC (Escherichia coli NIHJ): 6.25 µg/mL (≈ 23.8 µM)
- MIC (Sarcina lutea PCI1001): 25 µg/mL (≈ 95.3 µM)
- inhibition of growth of Gram-positive and Gram-negative bacteria [8]: active against Gram-positive and Gram-negative bacteria
- MIC (Micrococcus flavus FDA16): 50 µg/mL (≈ 191 µM)
- MIC [9]: 25 µg/mL (≈ 95.3 µM)
- MIC [10]: 1.56 µg/mL (≈ 5.95 µM)
- MIC (Proteus rettgeri GN466): 3.13 µg/mL (≈ 11.9 µM)

From patent US4065495A (Zaidan Hojin Biseibutsu Kagaku Kenkyu Kai, priority 1975, dated 1977)
